Experimental data taken from ChEMBL document CHEMBL1201862, “PubChem BioAssay data set” (2004).
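In this assay, cells in 96-well plates receive the compound at five concentrations for 48 hours. Endpoints are linearly interpolated between the surrounding concentrations. At the GI50, growth is halved.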 Active and inactive are the calls of the source. Cut-off read from the data, not from the text of the source: active = GI50 up to about 1.1 µM and inactive = higher.

Experiments:
Test in all cases: inhibition of tumour cell growth, NCI panel, 48 h
SN12C = tested on: SN12C
HOP-62 = tested on: HOP-62
TK-10 = tested on: TK-10
HCC 2998 = tested on: HCC 2998
MDA-N = tested on: MDA-N
UACC-257 = tested on: UACC-257
HT-29 = tested on: HT-29
PC-3 = tested on: PC-3
OVCAR-4 = tested on: OVCAR-4
HCT-15 = tested on: HCT-15
SF-268 = tested on: SF-268
LOX IMVI = tested on: LOX IMVI
RPMI-8226 = tested on: RPMI-8226
MOLT-4 = tested on: MOLT-4
ACHN = tested on: ACHN
786-0 = tested on: 786-0
M14 = tested on: M14
SNB-75 = tested on: SNB-75
T47D = tested on: T47D
A549 = tested on: A549

Row | Structure (SMILES) | GI50 (SN12C) | GI50 (HOP-62) | GI50 (TK-10) | GI50 (HCC 2998) | GI50 (MDA-N) | GI50 (UACC-257) | GI50 (HT-29) | GI50 (PC-3) | GI50 (OVCAR-4) | GI50 (HCT-15) | GI50 (SF-268) | GI50 (LOX IMVI) | GI50 (RPMI-8226) | GI50 (MOLT-4) | GI50 (ACHN) | GI50 (786-0) | GI50 (M14) | GI50 (SNB-75) | GI50 (T47D) | GI50 (A549)
1 | COCN1C(=O)[C@@H]2C[C@@H](O)CN2C(=O)c2ccccc21 | > 100 µM (inactive) | > 100 µM (inactive) | > 100 µM (inactive) | > 100 µM (inactive) | > 100 µM (inactive) | > 100 µM (inactive) | > 100 µM (inactive) | > 100 µM (inactive) | > 100 µM (inactive) | > 100 µM | > 100 µM (inactive) | > 100 µM (inactive) | > 100 µM (inactive) | 61.7 µM (inactive) | > 100 µM (inactive) | > 100 µM (inactive) | > 100 µM (inactive) | > 100 µM (inactive) | > 100 µM (inactive) | > 100 µM (inactive)
2 | CC(=O)OC1C(O)C(C)OC(OC2C(OC(=O)C3CCC4C(C3)OC3(CC(OC(=O)/C=C/c5ccccc5)C(C)CO3)C43CO3)OC(C)C(O)C2OC(C)=O)C1O (stereo not drawn) | 0.0203 µM (active) | 0.00951 µM (active) | 0.0506 µM (active) | 0.00358 µM (active) | 0.00269 µM (active) | 0.0205 µM (active) | 0.00689 µM (active) | 0.00513 µM (active) | 0.00752 µM (active) | 0.718 µM | 0.00849 µM (active) | 0.00463 µM (active) | 0.00227 µM (active) | 0.00468 µM (active) | 0.0925 µM (active) | 0.0132 µM (active) | 0.00433 µM (active) | 0.00867 µM (active) | 0.00216 µM (active) | 0.0557 µM (active)
3 | COc1ccc(OCc2nc3cc(C(F)(F)F)ccc3nc2-c2ccccc2)cc1 | > 100 µM (inactive) | > 100 µM (inactive) | > 100 µM (inactive) | > 100 µM (inactive) | > 100 µM (inactive) | > 100 µM (inactive) | > 100 µM (inactive) | > 100 µM (inactive) | > 100 µM (inactive) | > 100 µM | > 100 µM (inactive) | > 100 µM (inactive) | > 100 µM (inactive) | > 100 µM (inactive) | > 100 µM (inactive) | > 100 µM (inactive) | > 100 µM (inactive) | > 100 µM (inactive) | 13.5 µM (inactive) | > 100 µM (inactive)
4 | COc1cc([C@H]2CC(=O)C[C@@H](c3cc(OC)c(OC)c(OC)c3)C23C(=O)c2ccccc2C3=O)cc(OC)c1OC | > 100 µM (inactive) | > 100 µM (inactive) | > 100 µM (inactive) | > 100 µM (inactive) | > 100 µM (inactive) | > 100 µM (inactive) | > 100 µM (inactive) | > 100 µM (inactive) | > 100 µM (inactive) | > 100 µM | > 100 µM (inactive) | > 100 µM (inactive) | > 100 µM (inactive) | > 100 µM (inactive) | > 100 µM (inactive) | > 100 µM (inactive) | > 100 µM (inactive) | 45.1 µM (inactive) | > 100 µM (inactive) | > 100 µM (inactive)
5 | Cc1c2ccccc2c(C)n2c1nc1cc(Cl)c(Cl)cc12 | > 10 µM (inactive) | > 10 µM (inactive) | > 10 µM (inactive) | > 10 µM (inactive) | > 10 µM (inactive) | > 10 µM (inactive) | > 10 µM (inactive) | > 10 µM (inactive) | > 10 µM (inactive) | > 10 µM | > 10 µM (inactive) | 2.78 µM (inactive) | 8.83 µM (inactive) | 2.93 µM (inactive) | > 10 µM (inactive) | 6.47 µM (inactive) | > 10 µM (inactive) | 3.8 µM (inactive) | > 10 µM (inactive) | > 10 µM (inactive)
6 | COc1cc(C(=O)n2c3ccc(Br)cc3c3nc4ccccc4nc32)cc(OC)c1OC | > 100 µM (inactive) | > 100 µM (inactive) | 32.7 µM (inactive) | > 100 µM (inactive) | > 100 µM (inactive) | > 100 µM (inactive) | > 100 µM (inactive) | > 100 µM (inactive) | > 100 µM (inactive) | > 100 µM | 60.5 µM (inactive) | > 100 µM (inactive) | > 100 µM (inactive) | 50.8 µM (inactive) | 37.9 µM (inactive) | 44.8 µM (inactive) | > 100 µM (inactive) | 26.2 µM (inactive) | > 100 µM (inactive) | –
7 | COc1ccc2cc(CNCCCCCCCCNCc3ccc4cc(OC)ccc4c3)ccc2c1 | – | 4.97 µM (inactive) | 3.37 µM (inactive) | 1.85 µM (inactive) | 7.74 µM (inactive) | 6.76 µM (inactive) | 2 µM (inactive) | 1.45 µM (inactive) | 6.34 µM (inactive) | 2 µM | 4.34 µM (inactive) | 3.94 µM (inactive) | 1.48 µM (inactive) | 2.77 µM (inactive) | 5.94 µM (inactive) | 5.36 µM (inactive) | 1.86 µM (inactive) | 3.41 µM (inactive) | 21.2 µM (inactive) | 13.5 µM (inactive)
